How the values were obtained:
[1] = tested on: ECG parameters (cardiac sodium channel / potassium channel blockage); experiment: Measurement of ECG parameters in pentobarbital anesthetized rats; assay type: in vivo, rat; conditions: bolus injection; for ED25 QT: dose producing a 25% increase in Q-T interval; for ED25 QRS: dose producing a 25% increase in QRS interval
Method: Rats weighing 200–250 gms were used in this example. Animals were anesthetized with 60 mg/kg pentobarbital i.p. The carotid artery and jugular vein were cannulated for measurement of blood pressure and drug injection, respectively. ECG was recorded by insertion of electrodes placed along the anatomical axis of the heart. All compounds were given as bolus injections.
Various ECG parameters were measured. Table 4 describes the results of the tests as ED25 (micromol/kg) which are the doses required to produce a 25% increase in the parameter measured (NE=not estimated). The increases in P—R interval and QRS interval indicate cardiac sodium channel blockage while the increase in Q-T interval indicates ancillary cardiac potassium channel blockage which is the property of a type 1a antiarrhythmic.

[2] = tested on: cardiac sodium channel blockage (left ventricle square wave stimulation); experiment: Assessment of sodium channel blockage by electrical stimulation of the left ventricle in rats; assay type: in vivo; conditions: infusion rate eliciting a 25% increase from control; rat left ventricle stimulation
Method: Rats were prepared according to the preceding procedure. Two silver stimulating electrodes were inserted through the chest wall and implanted in the left ventricle. Square wave stimulation was used to determine threshold current for capture, ventricular fibrillation threshold current, and effective refractory period (Howard, P. G. and Walker, M. J. A., Proc. West. Pharmacol. Soc. 33:123–127 (1990)). Table 5 contains ED25 values for these indices of cardiac sodium channel blockage, where the ED25 is the infusion rate in micromol/kg/minute of compound required to elicit a 25% increase from control. The increases in refractoriness indicate ancillary blockage of potassium channels. The threshold current for capture is represented by “It”. The fibrillation threshold current is represented by “VFT”. The effective refracting period is represented by “ERP”.

[3] = tested on: cardiac arrhythmias in conscious rats subjected to coronary artery occlusion; experiment: Antiarrhythmic efficacy: arrhythmias induced by coronary artery occlusion in conscious rats; assay type: in vivo, rat; conditions: infusion rate which reduces the arrhythmia score to 50% of that of vehicle-treated animals
Method: Antiarrhythmic efficacy was assessed by investigating the effect of a compound on the incidence of cardiac arrhythmias in conscious rats subjected to coronary artery occlusion. Rats weighing 200–300 gms were subjected to preparative surgery and assigned to groups in a random block design. In each case, the animal was anesthetized with halothane during surgical preparation. The left femoral artery was cannulated for measurement of mean arterial blood pressure and withdrawal of blood samples. The left femoral vein was also cannulated for injection of drugs. The thoracic cavity was opened and a polyethylene occluder loosely placed around the left anterior descending coronary artery. The thoracic cavity was then closed. ECG was recorded by insertion of electrodes placed along the anatomical axis of the heart. All cannulae and electrode leads were exteriorized in the mid scapular region. […] ECG, arrhythmias, blood pressure, heart rate and mortality were monitored for 30 minutes after occlusion. Arrhythmias were recorded as ventricular tachycardia (VT) and ventricular fibrillation (VF) and scored according to Curtis, M. J. and Walker, M. J. A., Cardiovasc. […]
Occlusion is associated with increases in R-wave height and “S-T” segment elevation: and an occluded zone (measured after death by cardiogreen dye perfusion) in the range of 25%–50% of total left-ventricular weight. […]

## Cl.c1ccc2cc(CCOC3CCCC3N3CCOCC3)ccc2c1 [compound 1, (1R,2R)/(1S,2S)-2-(4-MORPHOLINYL)-1-(2-NAPHTHALENETHOXY)CYCLOPENTANE MONOHYDROCHLORIDE]
[1]; dose producing a 25% increase in P-R interval
  ED25 PR: 45 µmol/kg
[1]
  ED25 QT: 2.5 µmol/kg
  ED25 QRS: 37 µmol/kg
[2]
  ED25 ERP (effective refractory period): 2.5 µmol/kg/min
  ED25 It (threshold current for capture): 3.3 µmol/kg/min
  ED25 VFT (fibrillation threshold current): 1.3 µmol/kg/min
[3]
  ED50AA: 1.5 µmol/kg/min

## Cl.O=C1CCN(C2CCCC2OCCc2c(Cl)cccc2Cl)C1 [compound 2, (1R,2R)/(1S,2S)-2-(3-KETOPYRROLIDINYL)-1-(2,6-DICHLOROPHENETHOXY)CYCLOPENTANE MONOHYDROCHLORIDE]
[1]
  ED25 QT: 3.3 µmol/kg
  ED25 QRS: 9 µmol/kg
[2]
  ED25 ERP (effective refractory period): 2.6 µmol/kg/min
  ED25 It (threshold current for capture): 10 µmol/kg/min
[3]
  ED50AA: 4 µmol/kg/min
